Here are results for 19 compounds from patent US10729680B2, “5-substituted 2-(morpholin-4-yl)-1,7-naphthyridines” (BAYER PHARMA AKTIENGESELLSCHAFT, priority 2016, dated 2020).

Test [1] has as its target full-length human ATR protein (ATR/ATRIP) (Homo sapiens (Human), UniProt Q13535). As to the kind of experiment: Binding Assay ATR (TR-FRET, tracer A displacement). The settings on record: displacement of fluorescent tracer A from GST-ATR/ATRIP. An excerpt: To determine of binding activity of the test compounds, full-length human ATR protein was expressed and purified together with ATRIP as described above. Furthermore, a fluorescently labelled compound (tracer A as described above) was used as a tracer molecule. Detection of the binding event of the tracer was achieved by time-resolved fluorescence energy transfer (TR-FRET). We used an anti-GST-Terbium antibody (CisBio) that binds to the GST-tag at the N-terminus of ATR-kinase. Excitation of Terbium with 337 nm light results in emission of fluorescent light with 545 nm. In case a tetrameric complex has formed (antiGST-Tb+GST-ATR+Strp2-ATRIP+tracer), part of the energy will be transferred from the Terbium to the fluorophore that itself emits light of 570 nm. Displacement of the fluorescent tracer by a test compound leads to a reduction of the TR-FRET-signal.
For the assay 50 nl of a 100-fold concentrated solution of the test compound in DMSO was pipetted into a black low volume 384 well microtiter plate (MTP, Greiner Bio-One, Frickenhausen, Germany). To prepare the ATR-working solution, ATR/ATRIP stock solution was diluted in assay buffer [50 mM HEPES (pH 7.0), 10 mM MgCl2, 1 mM DTT, 0.01% (w/v) Igepal, 0.01% (w/v) BSA] to 4.2 nM protein concentration (concentration may vary from lot to lot of protein preparation). AntiGST-Tb antibody was diluted to 4.2 nM. The ATR-working solution was incubated for 30 min at 22° C. prior to dispensing to pre-form the complex of antiGST-Tb+GST-ATR+ATRIP. Then, 3 μl of the ATR-working solution were added to the test compound and the mixture was incubated for 10 min at 22° C. to allow pre-binding of the test compounds to ATR/ATRIP. Then, 2 μl of a 100 nM solution of tracer A in assay buffer were added to the ATR-working solution. The resulting mixture was incubated for 30 min at 22° C. The measurement of the TR-FRET signal was performed in a standard HTRF-compatible MTP reader instrument (e.g. BMG Pherastar) by recording the fluorescence emissions at 545 nm and 570 nm after excitation at 337-350 nm. The ratio between emission at 570 nm divided by emission at 545 nm was calculated to give the well ratio. The experimental data (well ratios) were normalised by the following way: positive control contained ATR-working solution plus tracer A solution (=0% inhibition), the negative control contained all components except GST-ATR/ATRIP (=100% inhibition). Usually the compounds were tested on the same MTP in 11 different concentrations in the range of 20 μM to 0.1 nM (20 μM, 5.9 μM, 1.7 μM, 0.51 μM, 0.15 μM, 44 nM, 13 nM, 3.8 nM, 1.1 nM, 0.33 nM and 0.1 nM). The dilution series were prepared separately before the assay on the level of the 100 fold concentrated solutions in DMSO by serial 1:3.4 dilutions in duplicate values for each concentration. IC50 values were calculated by a 4 parameter fit using standard software (GraphPad prism or equivalent).
On the technique in general: In TR-FRET formats the signal depends on donor and acceptor labels being close together.

The next test concerns HeLa cells. The test can be described thus: Proliferation assay (HeLa, crystal violet). It is filed as cell-based. The following applies: Homo sapiens, 96 h, 4 days incubation, crystal violet staining, read-out: Inhibition of HeLa cell proliferation. As for the experimental part:
Human tumour cells were originally obtained from the American Type Culture Collection (ATCC), the Deutsche Sammlung von Mikroorganismen und Zellkulturen (DSMZ, German Collection of Microorganisms and Cell Cultures) or Epo GmbH, Berlin.
Adherently growing cells (HeLa, HeLa-MaTu-ADR, HT-144, Lovo, HT-29, NCI-H460, DU145, Caco2, B16F10) were plated out in a density of 1500-4000 cells/measurement point, depending on the rate of growth of the cell line, in a 96-well multititre plate in 200 μl of growth medium (DMEM/HAMS F12, 2 mM L-glutamine, 10% foetal calf serum). After 24 hours, the cells of one plate (zero plate) were dyed with crystal violet (see below), whereas the medium of the other plates was replaced with fresh culture medium (200 μl) to which the test substances were added in various concentrations (0 μM, and also in the range of 0.001-10 μM; the final concentration of the solvent dimethyl sulphoxide was 0.1 or 0.5%). The cells were incubated for 4 days in the presence of the test substances. Cell proliferation was determined by staining the cells with crystal violet: the cells were fixed at room temperature for 15 min by adding 20 μl/measurement point of an 11% strength glutaraldehyde solution. After washing the fixed cells three times with water, the plates were dried at room temperature. The cells were stained by adding 100 μl/measurement point of a 0.1% strength crystal violet solution (pH adjusted to pH 3 by adding acetic acid). After washing the cells three times with water, the plates were dried at room temperature. The dye was dissolved by adding 100 μl/measurement point of a 10% strength acetic acid solution. Absorbance was determined photometrically at a wavelength of 595 nm. The percentage change in cell growth was calculated by normalizing the measured values to the absorbance values of the zero plate (=0%) and the absorbance of the untreated (0 μM) cells (=100%). The IC50 values were determined by means of a four parameter fit.
Inhibition of proliferation of HeLa cells by compounds according to the present invention, determined as described above. All IC50 (inhibitory concentration at 50% of maximal effect) values are indicated in M, “n.t.” means that the compounds have not been tested in the respective assay.

Sequence of full-length human ATR protein (ATR/ATRIP) (Q13535 other isoform, or with tags, fused parts or gaps): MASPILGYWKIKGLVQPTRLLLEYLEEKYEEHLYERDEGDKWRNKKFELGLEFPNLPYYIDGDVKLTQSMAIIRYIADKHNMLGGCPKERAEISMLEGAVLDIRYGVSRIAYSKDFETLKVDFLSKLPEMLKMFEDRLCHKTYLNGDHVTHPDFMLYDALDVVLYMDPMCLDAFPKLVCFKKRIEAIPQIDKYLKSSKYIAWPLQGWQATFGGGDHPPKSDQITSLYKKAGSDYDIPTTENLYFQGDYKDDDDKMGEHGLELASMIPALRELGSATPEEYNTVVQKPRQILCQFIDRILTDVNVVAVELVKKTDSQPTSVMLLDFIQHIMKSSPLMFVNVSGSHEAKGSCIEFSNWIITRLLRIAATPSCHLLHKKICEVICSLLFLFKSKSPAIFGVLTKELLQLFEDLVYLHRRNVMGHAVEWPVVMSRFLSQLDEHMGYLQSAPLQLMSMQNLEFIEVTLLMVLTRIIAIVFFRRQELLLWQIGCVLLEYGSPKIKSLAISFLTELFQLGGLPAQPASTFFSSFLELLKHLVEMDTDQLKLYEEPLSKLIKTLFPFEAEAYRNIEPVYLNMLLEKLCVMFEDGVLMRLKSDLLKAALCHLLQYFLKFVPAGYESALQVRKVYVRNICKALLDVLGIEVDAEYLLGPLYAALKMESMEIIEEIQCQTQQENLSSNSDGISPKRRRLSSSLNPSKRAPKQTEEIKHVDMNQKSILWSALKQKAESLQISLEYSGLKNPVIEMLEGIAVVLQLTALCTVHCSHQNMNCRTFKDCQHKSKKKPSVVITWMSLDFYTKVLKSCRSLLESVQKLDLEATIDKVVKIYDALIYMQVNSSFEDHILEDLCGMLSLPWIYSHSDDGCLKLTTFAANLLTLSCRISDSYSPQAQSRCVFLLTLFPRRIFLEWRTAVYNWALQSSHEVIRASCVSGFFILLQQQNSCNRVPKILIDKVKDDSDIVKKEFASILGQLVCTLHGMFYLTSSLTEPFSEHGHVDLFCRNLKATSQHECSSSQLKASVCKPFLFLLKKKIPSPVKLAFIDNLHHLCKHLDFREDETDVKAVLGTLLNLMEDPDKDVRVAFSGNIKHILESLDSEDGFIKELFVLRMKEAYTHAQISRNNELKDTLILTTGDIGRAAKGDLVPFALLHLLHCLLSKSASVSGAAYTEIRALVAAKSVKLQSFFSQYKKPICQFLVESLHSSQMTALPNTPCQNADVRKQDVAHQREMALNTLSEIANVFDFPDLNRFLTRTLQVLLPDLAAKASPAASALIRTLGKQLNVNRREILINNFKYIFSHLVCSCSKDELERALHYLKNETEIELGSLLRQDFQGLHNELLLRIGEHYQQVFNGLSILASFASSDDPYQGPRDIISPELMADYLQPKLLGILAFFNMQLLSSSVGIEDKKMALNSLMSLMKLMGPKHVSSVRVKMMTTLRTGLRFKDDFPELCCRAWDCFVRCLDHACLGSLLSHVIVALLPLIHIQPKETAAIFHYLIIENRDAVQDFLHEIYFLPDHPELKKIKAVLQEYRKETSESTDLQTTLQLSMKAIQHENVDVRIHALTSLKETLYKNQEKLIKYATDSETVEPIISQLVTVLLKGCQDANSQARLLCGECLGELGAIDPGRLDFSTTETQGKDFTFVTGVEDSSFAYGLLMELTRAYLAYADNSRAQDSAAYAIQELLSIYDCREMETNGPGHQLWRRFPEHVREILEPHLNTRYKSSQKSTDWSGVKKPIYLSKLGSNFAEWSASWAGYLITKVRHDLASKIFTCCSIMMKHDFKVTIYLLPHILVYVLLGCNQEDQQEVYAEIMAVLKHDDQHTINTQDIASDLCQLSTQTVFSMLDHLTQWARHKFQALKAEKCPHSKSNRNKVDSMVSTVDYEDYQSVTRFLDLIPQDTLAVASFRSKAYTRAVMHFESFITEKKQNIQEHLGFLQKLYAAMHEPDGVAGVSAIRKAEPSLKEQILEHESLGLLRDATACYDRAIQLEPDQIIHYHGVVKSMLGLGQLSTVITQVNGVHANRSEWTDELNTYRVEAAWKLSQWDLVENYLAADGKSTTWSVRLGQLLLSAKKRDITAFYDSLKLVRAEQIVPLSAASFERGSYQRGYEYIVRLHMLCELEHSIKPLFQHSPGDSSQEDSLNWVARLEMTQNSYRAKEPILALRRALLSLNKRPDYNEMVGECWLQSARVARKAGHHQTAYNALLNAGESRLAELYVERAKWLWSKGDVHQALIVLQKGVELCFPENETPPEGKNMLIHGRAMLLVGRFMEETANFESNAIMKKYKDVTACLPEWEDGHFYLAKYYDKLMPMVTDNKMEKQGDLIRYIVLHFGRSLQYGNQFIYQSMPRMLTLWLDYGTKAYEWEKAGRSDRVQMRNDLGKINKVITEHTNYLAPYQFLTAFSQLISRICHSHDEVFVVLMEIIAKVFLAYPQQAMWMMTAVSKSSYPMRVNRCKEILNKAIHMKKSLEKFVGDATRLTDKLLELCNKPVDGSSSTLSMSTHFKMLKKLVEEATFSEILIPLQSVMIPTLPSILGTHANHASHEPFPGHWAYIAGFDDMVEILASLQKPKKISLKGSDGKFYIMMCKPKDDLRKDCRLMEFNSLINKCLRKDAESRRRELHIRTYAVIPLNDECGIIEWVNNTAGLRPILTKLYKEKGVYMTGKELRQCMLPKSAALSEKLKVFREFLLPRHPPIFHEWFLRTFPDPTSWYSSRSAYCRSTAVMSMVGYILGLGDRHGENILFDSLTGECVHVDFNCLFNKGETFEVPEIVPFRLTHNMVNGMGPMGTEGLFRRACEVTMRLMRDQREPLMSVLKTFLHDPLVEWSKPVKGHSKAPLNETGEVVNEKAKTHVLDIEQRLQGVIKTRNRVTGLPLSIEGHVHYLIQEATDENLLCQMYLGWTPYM
Sequence of full-length human ATR protein (ATR/ATRIP) (Q8WXE1 other isoform, or with tags, fused parts or gaps partner): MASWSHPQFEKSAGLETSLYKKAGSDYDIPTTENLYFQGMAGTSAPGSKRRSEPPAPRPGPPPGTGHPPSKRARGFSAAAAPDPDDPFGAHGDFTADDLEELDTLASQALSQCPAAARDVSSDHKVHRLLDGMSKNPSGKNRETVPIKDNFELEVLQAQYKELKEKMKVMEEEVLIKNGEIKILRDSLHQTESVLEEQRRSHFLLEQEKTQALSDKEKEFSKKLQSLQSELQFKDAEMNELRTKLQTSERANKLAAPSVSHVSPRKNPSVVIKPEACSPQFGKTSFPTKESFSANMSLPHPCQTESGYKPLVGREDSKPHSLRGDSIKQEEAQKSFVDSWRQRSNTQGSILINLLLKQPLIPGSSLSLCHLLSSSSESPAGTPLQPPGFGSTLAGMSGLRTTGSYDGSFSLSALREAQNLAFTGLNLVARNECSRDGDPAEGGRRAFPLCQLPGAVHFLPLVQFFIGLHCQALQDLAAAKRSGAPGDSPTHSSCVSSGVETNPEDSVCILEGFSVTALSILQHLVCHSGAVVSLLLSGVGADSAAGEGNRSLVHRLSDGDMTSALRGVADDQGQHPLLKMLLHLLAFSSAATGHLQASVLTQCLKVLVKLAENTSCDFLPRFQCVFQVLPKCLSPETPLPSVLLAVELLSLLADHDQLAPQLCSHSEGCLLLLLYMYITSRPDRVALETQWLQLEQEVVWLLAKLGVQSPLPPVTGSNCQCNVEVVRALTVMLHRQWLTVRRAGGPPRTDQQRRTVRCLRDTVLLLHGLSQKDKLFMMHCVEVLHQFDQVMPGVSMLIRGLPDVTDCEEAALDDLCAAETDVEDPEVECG

As to `Cc1cnc(-c2ccn[nH]2)c2nc(N3CCOC[C@H]3C)cc(OC(C)C)c12` [Example 1, 5-methyl-2-[(3R)-3-methylmorpholin-4-yl]-4-(propan-2-yloxy)-8-(1H-pyrazol-5-yl)-1,7-naphthyridine], the IC50 is 25.9 nM in test [1] and 498 nM in the test on HeLa cells. For `Cc1cnc(-c2ccn[nH]2)c2nc(N3CCOC[C@H]3C)cc(-c3ccnn3C)c12` [Example 2, 5-methyl-2-[(3R)-3-methylmorpholin-4-yl]-4-(1-methyl-1H-pyrazol-5-yl)-8-(1H-pyrazol-5-yl)-1,7-naphthyridine], in that order: 6.02 nM and 63.4 nM. The matching figures for `Cc1cnc(-c2ccn[nH]2)c2nc(N3CCOC[C@H]3C)cc(-c3cccnc3F)c12` [Example 3, 4-(2-fluoropyridin-3-yl)-5-methyl-2-[(3R)-3-methylmorpholin-4-yl]-8-(1H-pyrazol-5-yl)-1,7-naphthyridine]: 8.13 nM and 154 nM. The matching figures for `Cc1nc(S(C)(=O)=O)ccc1-c1cc(N2CCOC[C@H]2C)nc2c(-c3ccn[nH]3)ncc(C)c12` [Example 4, 5-methyl-4-[2-methyl-6-(methylsulfonyl)pyridin-3-yl]-2-[(3R)-3-methylmorpholin-4-yl]-8-(1H-pyrazol-5-yl)-1,7-naphthyridine]: 37.3 nM and 333 nM. `Cc1cnc(-c2ccn[nH]2)c2nc(N3CCOC[C@H]3C)cc(-c3cnc(Cl)n3C)c12` [Example 5, 4-(2-chloro-1-methyl-1H-imidazol-5-yl)-5-methyl-2-[(3R)-3-methylmorpholin-4-yl]-8-(1H-pyrazol-5-yl)-1,7-naphthyridine]: the IC50 in test [1] stood at 5.07 nM; in the test with HeLa cells, 85.1 nM. For `Cc1cnc(-c2ccn[nH]2)c2nc(N3CCOC[C@H]3C)cc(-c3ccc(N4CCNCC4)cc3F)c12` [Example 6, 4-[2-fluoro-4-(piperazin-1-yl)phenyl]-5-methyl-2-[(3R)-3-methylmorpholin-4-yl]-8-(1H-pyrazol-5-yl)-1,7-naphthyridine], in that order: 14.2 nM and 296 nM. For `Cc1cnc(-c2ccn[nH]2)c2nc(N3CCOC[C@H]3C)cc(-c3cccc(F)c3F)c12` [Example 7, 4-(2,3-difluorophenyl)-5-methyl-2-[(3R)-3-methylmorpholin-4-yl]-8-(1H-pyrazol-5-yl)-1,7-naphthyridine], in that order: 8.27 nM and 499 nM. With `Cc1cnc(-c2ccn[nH]2)c2nc(N3CCOC[C@H]3C)cc(N=S3(=O)CCCC3)c12` [Example 8, N-5-methyl-2-[(3R)-3-methylmorpholin-4-yl]-8-(1H-pyrazol-5-yl)-1,7-naphthyridin-4-yltetrahydro-1H-1λ^4-thiophen-1-imine 1-oxide], the IC50 in test [1] is 35.5 nM; in the test on HeLa cells, 473 nM. For `CCS(=O)(CC)=Nc1cc(N2CCOC[C@H]2C)nc2c(-c3ccn[nH]3)ncc(C)c12` [Example 9, 4-[diethyl(oxido)-λ^6-sulfanylidene]amino-5-methyl-2-[(3R)-3-methylmorpholin-4-yl]-8-(1H-pyrazol-5-yl)-1,7-naphthyridine], in that order: 14.1 nM and 117 nM. Take `Cc1cnc(-c2ccn[nH]2)c2nc(N3CCOC[C@H]3C)cc(N3CCOCC3)c12` [Example 10, 5-methyl-2-[(3R)-3-methylmorpholin-4-yl]-4-(morpholin-4-yl)-8-(1H-pyrazol-5-yl)-1,7-naphthyridine]: the IC50 in test [1] amounted to 8.91 nM; in the test with HeLa cells it was 109 nM. For `Cc1cnc(-c2ccn[nH]2)c2nc(N3CCOC[C@H]3C)cc(N3CCC(CO)CC3)c12` [Example 11, (1-{5-methyl-2-[(3R)-3-methylmorpholin-4-yl]-8-(1H-pyrazol-5-yl)-1,7-naphthyridin-4-yl}piperidin-4-yl)methanol], in that order: 3.8 nM and 33.2 nM. For `Cc1cnc(-c2ccn[nH]2)c2nc(N3CCOC[C@H]3C)cc(N3CCN(S(C)(=O)=O)CC3)c12` [Example 12, 5-methyl-2-[(3R)-3-methylmorpholin-4-yl]-4-[4-(methylsulfonyl)piperazin-1-yl]-8-(1H-pyrazol-5-yl)-1,7-naphthyridine], in that order: 5.49 nM and 440 nM.

In the case of `Cc1cnc(-c2ccn[nH]2)c2nc(N3CCOC[C@H]3C)cc(N(C)CC(C)(C)C)c12` [Example 13, N-(2,2-dimethylpropyl)-N,5-dimethyl-2-[(3R)-3-methylmorpholin-4-yl]-8-(1H-pyrazol-5-yl)-1,7-naphthyridin-4-amine], the IC50 in test [1] came to 4.93 nM; in the test on HeLa cells, 745 nM. `Cc1cnc(-c2ccn[nH]2)c2nc(N3CCOC[C@H]3C)cc(-c3cccc(OC(C)C)c3)c12` [Example 60, 5-methyl-2-[(3R)-3-methylmorpholin-4-yl]-4-[3-(propan-2-yloxy)phenyl]-8-(1H-pyrazol-5-yl)-1,7-naphthyridine] gave an IC50 in test [1] of 132 nM. On the same count and under the same terms, as for `Cc1ccncc1-c1cc(N2CCOC[C@H]2C)nc2c(-c3ccn[nH]3)ncc(C)c12` [Example 61, 5-methyl-2-[(3R)-3-methylmorpholin-4-yl]-4-(4-methylpyridin-3-yl)-8-(1H-pyrazol-5-yl)-1,7-naphthyridine], the figure is 8.6 nM; as for `Cc1cnc(-c2ccn[nH]2)c2nc(N3CCOC[C@H]3C)cc(-c3ccc(C(=O)NC(C)(C)C)cc3)c12` [Example 62, N-tert-butyl-4-{5-methyl-2-[(3R)-3-methylmorpholin-4-yl]-8-(1H-pyrazol-5-yl)-1,7-naphthyridin-4-yl}benzamide], 18.2 nM; as for `Cc1cnc(-c2ccn[nH]2)c2nc(N3CCOC[C@H]3C)cc(-c3ccc(C(=O)NC4CC4)cc3)c12` [Example 63, N-cyclopropyl-4-{5-methyl-2-[(3R)-3-methylmorpholin-4-yl]-8-(1H-pyrazol-5-yl)-1,7-naphthyridin-4-yl}benzamide], 7.87 nM. `COCc1ccc(-c2cc(N3CCOC[C@H]3C)nc3c(-c4ccn[nH]4)ncc(C)c23)cc1` [Example 65, 4-[4-(methoxymethyl)phenyl]-5-methyl-2-[(3R)-3-methylmorpholin-4-yl]-8-(1H-pyrazol-5-yl)-1,7-naphthyridine] came in with an IC50 in test [1] of 12.3 nM. With `CNC(=O)c1ccc(-c2cc(N3CCOC[C@H]3C)nc3c(-c4ccn[nH]4)ncc(C)c23)cc1` [Example 66, N-methyl-4-{5-methyl-2-[(3R)-3-methylmorpholin-4-yl]-8-(1H-pyrazol-5-yl)-1,7-naphthyridin-4-yl}benzamide], in test [1], the IC50 came out at 12.9 nM.
